Test results: patent publication US4946834A, “Phosphonic acid substituted steroids as steroid 5α-reductase inhibitors” (priority 1988, dated 1990)
Like-named read-outs stand apart in the source and are kept apart here.

Legend:
steroid 5α-reductase = conditions: cited from earlier work; for Ki: read-out: K1; for mode of inhibition (in words): literature statement in text; for reversibility of inhibition (Reversible / Irreversible): printed in parentheses beside K1
[1] = target: T1, human steroid 5α-reductase (Homo sapiens, UniProt P31213); experiment: Inhibition of human prostatic steroid 5α-reductase ([14C]-testosterone conversion, Dixon analysis); format: biochemical
T1 construct: using tissue from hyperplastic human prostates; from tissue; host or cells: frozen human prostates (hyperplastic), washed particulate fraction from differential centrifugation
T1 sequence (P31213 1-254): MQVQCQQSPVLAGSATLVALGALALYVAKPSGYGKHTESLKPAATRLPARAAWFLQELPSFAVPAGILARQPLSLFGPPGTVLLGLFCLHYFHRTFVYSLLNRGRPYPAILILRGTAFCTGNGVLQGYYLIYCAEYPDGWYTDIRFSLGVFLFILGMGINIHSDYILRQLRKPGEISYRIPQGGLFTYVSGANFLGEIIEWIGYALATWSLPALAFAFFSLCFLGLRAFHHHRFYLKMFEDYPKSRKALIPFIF
Description: In determining potency in inhibiting the human enzyme, the following procedure was employed:
The resulting pellet was suspended in 20 mM potassium phosphate buffer, pH 6.5, containing 20% glycerol, 1 mM dithiothreitol, and 50 μM NADPH. The suspended particulate solution was stored at -80° C.
To each tube was added buffer, 20 μl of 10 mM NADPH and an aliquot of prostatic particulate solution to a final volume of 1.0 ml of 50 mM sodium citrate, pH 5.0. After incubating the solution at 37° C. for 20 to 30 minutes the reaction was quenched by the addition of 4 ml ethyl acetate and 0.25 μmol each of testosterone, dihydrotestosterone, androstanediol, and androstanedione as carriers. […] The radiochemical content in the bands of the substrate and the products was determined with a BIOSCAN Imaging Scanner (Bioscan, Inc., Washington, D.C.). The percent of recovered radiolabel converted to product was calculated, from which enzyme activity was determined. […]
The experimentally obtained data was computer fitted to a linear function by plotting the reciprocal of the enzyme activity (1/velocity) against the variable inhibitor concentration (Dixon, M. (1953), Biochem. J., 55, 170). Assuming that the steroidal inhibitor is a competitive inhibitor against testosterone, a value for the inhibition constant (Ki) can be calculated from equation 1: […]

[2] = 5α-reductase inhibitors, literature reference given per compound

Compound | Ki (steroid 5α-reductase; [2]) | reversibility of inhibition (Reversible / Irreversible) (steroid 5α-reductase) | also measured
C=C1C[C@@H]2[C@H](CC[C@@]3(C)[C@H]2CC[C@]3(OC(C)=O)C(C)=O)[C@@]2(C)CCC(=O)C=C12 [(5)] | 1250 nM | Irreversible | mode of inhibition (in words) (steroid 5α-reductase): time dependent inactivator of steroid 5α-reductase
CC(C)N(C(=O)[C@H]1CC[C@H]2[C@@H]3CCC4=CC(P(=O)(O)O)=CC[C@]4(C)[C@H]3CC[C@]12C)C(C)C [Example 30, 17β-(N,N-diisopropylcarboxamide)-androst-2,4-diene-3-phosphonic acid] |  |  | Ki [1]: 160 nM
C[C@]12CC[C@H]3[C@@H](CCC4=CC(=O)CC[C@@]43C)[C@@H]1CC[C@@H]2C(=O)O [(1)] | 1100 nM | Reversible | 
CCN(CC)C(=O)[C@H]1CC[C@H]2[C@@H]3CC[C@H]4N(C)C(=O)CC[C@]4(C)[C@H]3CC[C@]12C [(4)] | 5 nM | Reversible | 
CC(CO)[C@H]1CC[C@H]2[C@@H]3CC[C@H]4C(=[N+]=[N-])C(=O)CC[C@]4(C)[C@H]3CC[C@]12C (some centres unmarked) [(3)] |  | Irreversible | mode of inhibition (in words) (steroid 5α-reductase): potent, time-dependent inhibitor of steroid 5α-reductase; Ki (steroid 5α-reductase; unit inferred, Blohm, et al., 1980): 35 nM
CC(C)N(C(=O)[C@H]1CC[C@H]2[C@@H]3CC=C4C=C(P(=O)(O)O)CC[C@]4(C)[C@H]3CC[C@]12C)C(C)C [Example 1, 17β-(N,N-diisopropylcarboxamide)-androst-3,5-diene-3phosphonic acid] |  |  | Ki ([1]; hyperplastic human prostate particulate, pH 5.0, 37° C., 20 to 30 minutes, competitive inhibition against testosterone assumed, read-out: Ki (inhibition constant of human prostatic steroid 5α-reductase)): 15 to 40 nM
CC(=O)C1CCC2C3CC=C=CC(=O)CCC(=O)C3CCC12C (centres unmarked) [(2)] | 1000 nM | Irreversible | 
